{"source": "patent EP0179751B1", "about": "“Ionophore polyether, process for its preparation and its use” (SANOFI, priority 1984, dated 1986)", "key": {"solubility": {"assay": "solubility", "assay_type": "physicochemical", "protocol": "Aspect: solide P.F. : 83-85° C Solubilité : se dissout dans les solvants organiques usuels, tels que les alcools inférieurs par exemple méthanol, éthanol, les esters inférieurs, par exemple l'acétate d'éthyle ou encore dans l'éther éthylique et le chloroforme. Dans l'eau, la solubilité est de 44 % environ. αj25 : +45° (c = 0,03 n, méthanol)\nAspect : mousse blanche solide. P.F. 120-123° C Solubilité : se dissout dans les solvants organiques usuels, tels que les alcools inférieurs par exemple méthanol, éthanol, les esters inférieurs par exemple l'acétate d'éthyle ou encore dans l'éther éthylique et le chloroforme. Par contre, il est insoluble dans l'eau."}, "Bacillus cereus": {"test_system": "Bacillus cereus", "assay": "minimum inhibitory concentration, dilution method", "assay_type": "cell-based", "from_the_text": "Par exemple, on a décrit dans les brevets de l'Allemagne de l'Est Nos. 208 172 et 237 725 des complexes d'antibiotiques produits à partir de souches de Streptomyces hygroscopicus. Ces composés polyéthers sont caractérisés par une activité antibiotique importante et comparativement plus importante que celle présentée par la monensine ou la salinomycine. Par contre, l'abiérixine est douée d'activité antibiotique très faible par rapport à celle présentée par la plupart des ionophores polyéthers connus comme la monensine, la nigéricine ou la grisorixine. Par exemple, la concentration minimale inhibitrice de l'abiérixine vis-à-vis de Bacillus cereus déterminée selon la méthode de dilution est de 25 µg/ml mais de 0,05 µg/ml, 0,05 ug/ml et 3,12 gg/ml dans le cas respectivement de la monensine, de la nigéricine et de la grisorixine."}, "flore ruménale": {"test_system": "flore ruménale", "assay": "in vitro rumen flora fermentation, nitrogen use", "details": "in the absence of protein nitrogen"}, "acute toxicity, oral": {"assay": "acute toxicity, oral", "details": "mouse, in vivo, souris, voie orale, read-out: toxicité aiguë DL50", "protocol": "On a trouvé, par exemple, que la toxicité aiguë DL50 de l'abiérixine chez la souris par voie orale est comprise entre 600 et 1000 mg/kg alors que, dans les mêmes conditions, la toxicité d'autres polyéthers polycycliques se révèle beaucoup plus importante, de l'ordre de 50 mg/kg (DL50 lonomycine : 50 mg/kg, complexe de monensine- : 43,8 mg/kg, salinomycine- : 50 mg/kg)."}, "Eimeria tenella": {"test_system": "Eimeria tenella", "assay": "anticoccidial test in cockerels inoculated with Eimeria tenella", "assay_type": "in vivo", "details": "for Lésion individuelle Moyenne: Reid lesion score; for IC de J - 2 à J + 8: feed conversion index; for EO x 10^3 Total: oocyst excretion J+4 to J+8; for EO %: oocyst excretion relative to CTNT; for P = poids moyen à J + 8: start weight 127 g", "from_the_text": "Des tests ont été effectués de manière à montrer l'efficacité de l'abiérixine comme agent anticoccidien dans lesquels on a relevé les résultats zootechniques (poids, indice de consommation) et les symptômes […] de coccidiose (morbidité, mortalité, aspect des matières fécales, excrétion ookystale, lésions).\nOn a utilisé à cet effet le protocole expérimental suivant : • Animaux • - Coquelets de souche génétique Warren Sex Sal Link • - Age le jour de l'inoculation (J O) : 17 jours • - Age le jour de l'abattage (J +8) : 25 jours\nInoculum Dose : 300 000 oocystes sporulés d'Eimeria tenella\nAlimentation • - Aliment utilisé : aliment type poulet de chair, 1er âge • - Anticoccidien utilisé : l'abiérixine à la dose de 40 ou 50 ppm/jour depuis J-2 jusqu'à J +8\nLots • - Nombre d'animaux par lot : 4 • - Répartition des lots : • NCNT : animaux non contaminés, non traités • CTNT : animaux contaminés, non traités • CTT, : animaux contaminés, traités avec 40 ppm d'abiérixine • CTT2 : animaux contaminés, traités avec 50 ppm d'abiérixine\nLes critères • - Les gains de poids (GP) de J-2 à J +8 • - L'excrétion ookystale (EO) journalière de J+4 à J+8 • - La morbidité (M) notée de 0 à 4 • - L'aspect des fécès noté de 0 : fécès normales à 4 : fécès diarrhéiques ou hémorragiques (MF) • - La mortalité (M %) exprimée en pourcentage • - Les lésions (L) notées selon la notation de RFID (W. Malcolm REID, \"A diagnostic chart of nine species of fowl coccidia - Georgia Agricultural Experiment Stations - Dec. 1964, Technical Bulletin N. S. 39) • - Les indices de consommation (IC)"}, "[1]": {"details": "cited from earlier work"}, "[2]": {"details": "mouse, in vivo; cited from earlier work"}, "[3]": {"test_system": "Streptomyces C.N.C.M.-I-321", "assay": "sensitivity of producer strain to nigericin (MIC)", "assay_type": "cell-based"}, "[4]": {"test_system": "Streptomyces hygroscopicus NRRL 3602", "assay": "sensitivity of producer strain to nigericin (MIC)", "assay_type": "cell-based"}, "[5]": {"test_system": "Streptomyces hygroscopicus NRRL B 1865", "assay": "sensitivity of producer strain to nigericin (MIC)", "assay_type": "cell-based"}, "[6]": {"details": "CTT1: 40 ppm, J + 6, score 0 to 4"}, "[7]": {"details": "CTT1: 40 ppm, J + 7, score 0 to 4"}, "[8]": {"details": "CTT2: 50 ppm, J + 6, score 0 to 4"}, "[9]": {"details": "CTT2: 50 ppm, J + 7, score 0 to 4"}, "[10]": {"details": "souris, voie orale, comparison polyethers"}}, "note": "Where two headings read alike, the source gives them in different places.", "data": [{"compound": "COC1CC(CC(O)CCC(C)C=C(C)C(=O)O)OC2(OC(C)(C3CCC(C)(C4OC(C5OC(O)(CO)C(C)CC5C)CC4C)O3)CC2C)C1C", "note": "(stereo not shown) [abiérixine monohydratée]", "values": [{"measurement": "Solubilité dans les solvants organiques usuels", "setting": "solubility; méthanol, éthanol, acétate d'éthyle, éther éthylique, chloroforme", "value": "se dissout"}, {"measurement": "solubility", "setting": "solubility; water, read-out: Solubilité dans l'eau", "value": "~440", "unit": "mg/mL"}]}, {"compound": "COC1CC(CC(O)CCC(C)C=C(C)C(=O)O)OC2(OC(C)(C3CCC(C)(C4OC(C5OC(O)(CO)C(C)CC5C)CC4C)O3)CC2C)C1C", "note": "(stereo not shown) [abiérixine]", "values": [{"measurement": "MIC", "setting": "Bacillus cereus; read-out: concentration minimale inhibitrice", "value": 25, "unit": "µg/mL"}, {"measurement": "diminution de l'efficacité de la synthèse microbienne", "setting": "flore ruménale", "value": 10, "unit": "%"}, {"measurement": "LD50", "setting": "acute toxicity, oral", "value": "600 to 1000", "unit": "mg/kg"}, {"measurement": "croissance pondérale", "setting": "Eimeria tenella; 40 ppm/jour for 10 days, cockerels infected with E. tenella", "value": "augmente la croissance pondérale"}, {"measurement": "M % (mortalité)", "setting": "Eimeria tenella; CTT1: 40 ppm", "value": 0, "unit": "%"}, {"measurement": "GP = gain de poids moyen de J - 2 à J + 8", "setting": "Eimeria tenella; CTT1: 40 ppm in feed J-2 to J+8", "value": 93, "unit": "g"}, {"measurement": "MF (aspect des fécès)", "setting": "Eimeria tenella; CTT1: 40 ppm, J + 5, score 0 normal to 4 diarrhoeic or haemorrhagic", "value": 4}, {"measurement": "M (morbidité)", "setting": "Eimeria tenella; CTT1: 40 ppm, J + 5, score 0 to 4", "value": 3}, {"measurement": "M (morbidité)", "setting": "Eimeria tenella; [6]", "value": 0}, {"measurement": "MF (aspect des fécès)", "setting": "Eimeria tenella; [6]", "value": 1}, {"measurement": "M (morbidité)", "setting": "Eimeria tenella; [7]", "value": 0}, {"measurement": "MF (aspect des fécès)", "setting": "Eimeria tenella; [7]", "value": 0}, {"measurement": "Lésion individuelle Moyenne", "setting": "Eimeria tenella; CTT1: 40 ppm", "value": "2,5"}, {"measurement": "IC de J - 2 à J + 8", "setting": "Eimeria tenella; CTT1: 40 ppm", "value": "2,8"}, {"measurement": "EO x 10^3 Total", "setting": "Eimeria tenella; CTT1: 40 ppm", "value": "4165 x 10^3"}, {"measurement": "EO %", "setting": "Eimeria tenella; CTT1: 40 ppm", "value": "74,0%"}, {"measurement": "P = poids moyen à J + 8", "setting": "Eimeria tenella; CTT1: infected cockerels, 40 ppm in feed J-2 to J+8", "value": 219, "unit": "g"}, {"measurement": "M % (mortalité)", "setting": "Eimeria tenella; CTT2: 50 ppm", "value": 0, "unit": "%"}, {"measurement": "GP = gain de poids moyen de J - 2 à J + 8", "setting": "Eimeria tenella; CTT2: 50 ppm in feed J-2 to J+8", "value": 63, "unit": "g"}, {"measurement": "MF (aspect des fécès)", "setting": "Eimeria tenella; CTT2: 50 ppm, J + 5, score 0 normal to 4 diarrhoeic or haemorrhagic", "value": 3}, {"measurement": "M (morbidité)", "setting": "Eimeria tenella; CTT2: 50 ppm, J + 5, score 0 to 4", "value": 3}, {"measurement": "M (morbidité)", "setting": "Eimeria tenella; [8]", "value": 0}, {"measurement": "MF (aspect des fécès)", "setting": "Eimeria tenella; [8]", "value": 1}, {"measurement": "M (morbidité)", "setting": "Eimeria tenella; [9]", "value": 0}, {"measurement": "MF (aspect des fécès)", "setting": "Eimeria tenella; [9]", "value": 0}, {"measurement": "Lésion individuelle Moyenne", "setting": "Eimeria tenella; CTT2: 50 ppm", "value": "3,5"}, {"measurement": "IC de J - 2 à J + 8", "setting": "Eimeria tenella; CTT2: 50 ppm", "value": "3,35"}, {"measurement": "EO x 10^3 Total", "setting": "Eimeria tenella; CTT2: 50 ppm", "value": "2324 x 10^3"}, {"measurement": "EO %", "setting": "Eimeria tenella; CTT2: 50 ppm", "value": "41,3%"}, {"measurement": "P = poids moyen à J + 8", "setting": "Eimeria tenella; CTT2: infected cockerels, 50 ppm in feed J-2 to J+8", "value": 190, "unit": "g"}]}, {"compound": "CO[C@@H]1C[C@@H](C[C@H]2CC[C@H](C)C(C(C)C(=O)O)O2)O[C@]2(OC(C)(C3CCC(C)(C4O[C@@H]([C@H]5O[C@](C)(O)[C@H](C)C[C@@H]5C)C[C@@H]4C)O3)CC2C)[C@@H]1C", "note": "(stereo partly shown) [grisorixine]", "values": [{"measurement": "concentration minimale inhibitrice", "setting": "Bacillus cereus", "value": "3,12 gg/ml"}]}, {"compound": "CC[C@@H](C(=O)[C@@H](C)[C@@H](O)[C@H](C)[C@@H]1O[C@@H]([C@@H](CC)C(=O)O)CC[C@@H]1C)[C@H]1O[C@]2(C=C[C@@H](O)[C@]3(CC[C@@](C)([C@H]4CC[C@](O)(CC)[C@H](C)O4)O3)O2)[C@H](C)C[C@@H]1C", "note": "[salinomycine]", "values": [{"measurement": "DL50", "setting": "[1]; mouse, in vivo, po", "value": 50, "unit": "mg/kg"}, {"measurement": "DL50", "setting": "[2]", "value": 18, "unit": "mg/kg"}]}, {"compound": "COC1CC(CC(O)CCC(C)C=C(C)C(=O)O)OC2(OC(C)(C3CCC(C)(C4OC(C5OC(O)(CO)C(C)CC5C)CC4C)O3)CC2C)C1C", "note": "(stereo not shown) [sel de sodium de l'abiérixine]", "values": [{"measurement": "Solubilité dans l'eau", "setting": "solubility; water, in words", "value": "insoluble"}]}, {"compound": "complexe de monensine", "values": [{"measurement": "DL50", "setting": "[1]; [10]", "value": "43,8 mg/kg"}]}, {"compound": "lonomycine", "values": [{"measurement": "DL50", "setting": "[1]; [10]", "value": 50, "unit": "mg/kg"}]}, {"compound": "nigéricine", "values": [{"measurement": "Sensibilité à la nigéricine (C.M.I)", "setting": "[3]", "value": "> 500", "unit": "µg/mL"}, {"measurement": "concentration minimale inhibitrice", "setting": "Bacillus cereus", "value": "0,05 ug/ml"}, {"measurement": "diminution de l'efficacité de la synthèse microbienne", "setting": "flore ruménale", "value": "> 30", "unit": "%"}, {"measurement": "Sensibilité à la nigéricine (C.M.I)", "setting": "[4]", "value": "> 500", "unit": "µg/mL"}, {"measurement": "Sensibilité à la nigéricine (C.M.I)", "setting": "[5]", "value": "> 500", "unit": "µg/mL"}]}]}
